Data set [1] concerns Vero B4 cells. The settings on record: 72 hrs.
Data set [2] relates to SARS-CoV-2PR1. Put plainly: microbe, parasite or virus in culture. The data set is classed as cell-based. The following applies: Vero B4 cells, 72 hrs, qRT-PCR. Background: In qPCR the cycle at which signal appears reflects the starting amount.

One may read the inhibition as the relative decrease from the control value, in per cent.

For the compound `Cn1c(=O)c(Oc2ccc(F)cc2F)cc2cnc(NC(CCO)CCO)nc21` [Pamapimod, 6-(2,4-Difluorophenoxy)-2-[3-hydroxy-1-(2-hydroxyethyl)-propylamino]-8-methyl-8H-pyrido[2,3-d]pyrimidin-7-one], in data set [1], the “cellular toxicity as determined by WST assay” value was “no cellular toxicity”. Besides, the inhibition at 0.1 µM in data set [2] (Severe acute respiratory syndrome coronavirus 2, lowest concentration tested (100 nM), read-out: inhibition of shedding of new SARS-CoV-2 viruses into culture supernatants) turned out to be 80%.

Regarding `CCc1ccc(CCOc2ccc(CC3SC(=O)NC3=O)cc2)nc1` (stereo not drawn) [Pioglitazone], the “inhibition of viral shedding” value in data set [2] (at the highest concentrations) was greater than 90%.
